Experimental data reported in PubChem BioAssay (NCI).
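Here, GI50 denotes the concentration required for 50% inhibition of growth. At the TGI there is no net growth.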

Experiments:
Experiment in all cases: NCI-60 cell line screen, 384-well format
[1] = system: 786-0 renal
[2] = system: A498 renal
[3] = system: A549 NSCLC
[4] = system: ACHN renal
[5] = system: BT-549 breast
[6] = system: CAKI-1 renal
[7] = system: CCRF-CEM leukemia
[8] = system: COLO 205 colon
[9] = system: DU-145 prostate
[10] = system: EKVX NSCLC
[11] = system: HCC-2998 colon
[12] = system: HCT-15 colon
[13] = system: HL-60(TB) leukemia
[14] = system: HOP-62 NSCLC
[15] = system: HOP-92 NSCLC
[16] = system: HS 578T breast
[17] = system: HT29 colon
[18] = system: IGROV1 ovarian
[19] = system: KM12 colon
[20] = system: M14 melanoma
[21] = system: MALME-3M melanoma
[22] = system: MCF7 breast
[23] = system: MDA-MB-231 breast
[24] = system: MDA-MB-435 melanoma
[25] = system: MDA-MB-468 breast
[26] = system: MOLT-4 leukemia
[27] = system: NCI-H226 lung
[28] = system: NCI-H23 lung
[29] = system: NCI-H322M lung
[30] = system: NCI-H460 NSCLC
[31] = system: NCI-H522 lung
[32] = system: NCI/ADR-RES ovarian
[33] = system: OVCAR-3 ovarian
[34] = system: OVCAR-4 ovarian
[35] = system: OVCAR-5 ovarian
[36] = system: OVCAR-8 ovarian
[37] = system: PC-3 prostate
[38] = system: RPMI-8226 leukemia
[39] = system: RXF 393 renal
[40] = system: SF-268 CNS
[41] = system: SF-295 CNS
[42] = system: SF-539 CNS
[43] = system: SK-MEL-2 melanoma
[44] = system: SK-MEL-28 melanoma
[45] = system: SK-MEL-5 melanoma
[46] = system: SK-OV-3 ovarian
[47] = system: SN12C renal
[48] = system: SNB-19 CNS
[49] = system: SNB-75 CNS
[50] = system: SR leukemia
[51] = system: SW-620 colon
[52] = system: T-47D breast
[53] = system: TK-10 renal
[54] = system: U251 glioblastoma
[55] = system: UACC-257 melanoma
[56] = system: UACC-62 melanoma
[57] = system: HCT-116 colon
[58] = system: K-562 leukemia
[59] = system: LOX IMVI melanoma
[60] = system: UO-31 renal

Structure (SMILES): Nc1n[n+](=O)c2ccccc2n1O
- GI50 [1]: 59.8 µM
- TGI [1]: > 100 µM
- GI50 [2]: 38.7 µM
- TGI [2]: > 100 µM
- GI50 [3]: 47 µM
- TGI [3]: > 100 µM
- GI50 [4]: 27.2 µM
- TGI [4]: 69.8 µM
- GI50 [5]: 24.1 µM
- TGI [5]: 65.1 µM
- GI50 [6]: 36.2 µM
- TGI [6]: > 100 µM
- GI50 [7]: 20.5 µM
- TGI [7]: 47.5 µM
- GI50 [8]: 35.8 µM
- TGI [8]: > 100 µM
- GI50 [9]: 43.5 µM
- TGI [9]: > 100 µM
- GI50 [10]: 33.1 µM
- TGI [10]: > 100 µM
- GI50 [11]: 35.8 µM
- TGI [11]: > 100 µM
- GI50 [12]: 32 µM
- TGI [12]: > 100 µM
- GI50 [13]: 20.2 µM
- TGI [13]: 40.5 µM
- GI50 [14]: 22.5 µM
- TGI [14]: 66.6 µM
- GI50 [15]: 20.3 µM
- TGI [15]: 65.5 µM
- GI50 [16]: 20 µM
- TGI [16]: > 100 µM
- GI50 [17]: 69.7 µM
- TGI [17]: > 100 µM
- GI50 [18]: 36.7 µM
- TGI [18]: > 100 µM
- GI50 [19]: 41.7 µM
- TGI [19]: > 100 µM
- GI50 [20]: 24.5 µM
- TGI [20]: 65.6 µM
- GI50 [21]: 27.8 µM
- TGI [21]: 81.4 µM
- GI50 [22]: 57.6 µM
- TGI [22]: > 100 µM
- GI50 [23]: 70 µM
- TGI [23]: > 100 µM
- GI50 [24]: > 100 µM
- TGI [24]: > 100 µM
- GI50 [25]: 6.96 µM
- TGI [25]: 23.1 µM
- GI50 [26]: 12.3 µM
- TGI [26]: 24.8 µM
- GI50 [27]: 39.4 µM
- TGI [27]: > 100 µM
- GI50 [28]: 18 µM
- TGI [28]: 46.5 µM
- GI50 [29]: > 100 µM
- TGI [29]: > 100 µM
- GI50 [30]: 18.8 µM
- TGI [30]: 61.6 µM
- GI50 [31]: 11.9 µM
- TGI [31]: 44.1 µM
- GI50 [32]: 51.4 µM
- TGI [32]: > 100 µM
- GI50 [33]: 35.1 µM
- TGI [33]: > 100 µM
- GI50 [34]: 24.5 µM
- TGI [34]: 73 µM
- GI50 [35]: > 100 µM
- TGI [35]: > 100 µM
- GI50 [36]: 37.7 µM
- TGI [36]: > 100 µM
- GI50 [37]: 46.4 µM
- TGI [37]: > 100 µM
- GI50 [38]: 13.3 µM
- TGI [38]: 31.4 µM
- GI50 [39]: 36.8 µM
- TGI [39]: > 100 µM
- GI50 [40]: 24.3 µM
- TGI [40]: 73.5 µM
- GI50 [41]: 26.1 µM
- TGI [41]: > 100 µM
- GI50 [42]: 58.3 µM
- TGI [42]: > 100 µM
- GI50 [43]: 42.2 µM
- TGI [43]: 90.5 µM
- GI50 [44]: > 100 µM
- TGI [44]: > 100 µM
- GI50 [45]: 14.7 µM
- TGI [45]: 34.3 µM
- GI50 [46]: 17.7 µM
- TGI [46]: 70.5 µM
- GI50 [47]: 22.3 µM
- TGI [47]: > 100 µM
- GI50 [48]: 48.2 µM
- TGI [48]: > 100 µM
- GI50 [49]: 20 µM
- TGI [49]: 60.3 µM
- GI50 [50]: 4.04 µM
- TGI [50]: 13.5 µM
- GI50 [51]: 72.5 µM
- TGI [51]: > 100 µM
- GI50 [52]: 24.1 µM
- TGI [52]: > 100 µM
- GI50 [53]: 69.8 µM
- TGI [53]: > 100 µM
- GI50 [54]: 46.7 µM
- TGI [54]: > 100 µM
- GI50 [55]: 68.2 µM
- TGI [55]: > 100 µM
- GI50 [56]: 20.6 µM
- TGI [56]: 59.9 µM

Structure (SMILES): CC1(C)CCC2(CC1)N[C@@H](C(=O)N[C@@H]1CC[C@@H](C(N)=O)OC1)[C@H](c1ccnc(Cl)c1F)[C@]21C(=O)Nc2cc(Cl)ccc21
- GI50 [1]: 2.02 µM
- TGI [1]: 4.3 µM
- GI50 [2]: 0.0244 µM
- TGI [2]: 0.971 µM
- GI50 [3]: 0.0746 µM
- TGI [3]: 1.3 µM
- GI50 [4]: 0.0285 µM
- TGI [4]: 0.65 µM
- GI50 [5]: 1.74 µM
- TGI [5]: 3.78 µM
- GI50 [6]: < 0.01 µM
- TGI [6]: 0.347 µM
- GI50 [7]: 1.92 µM
- TGI [7]: 3.43 µM
- GI50 [8]: 1.91 µM
- TGI [8]: 3.42 µM
- GI50 [9]: 2.66 µM
- TGI [9]: 6.74 µM
- GI50 [11]: 1.34 µM
- TGI [11]: 2.7 µM
- GI50 [57]: 0.0352 µM
- TGI [57]: 1.39 µM
- GI50 [12]: 1.91 µM
- TGI [12]: 3.69 µM
- GI50 [13]: 2.11 µM
- TGI [13]: 3.55 µM
- GI50 [14]: 1.85 µM
- TGI [14]: 3.78 µM
- GI50 [15]: 1.71 µM
- TGI [15]: 3.53 µM
- GI50 [17]: 1.73 µM
- TGI [17]: 3.24 µM
- GI50 [18]: 0.224 µM
- TGI [18]: 2.44 µM
- GI50 [58]: 1.64 µM
- TGI [58]: 3.03 µM
- GI50 [19]: 1.98 µM
- TGI [19]: 3.82 µM
- GI50 [59]: 0.345 µM
- TGI [59]: 1.88 µM
- GI50 [20]: 0.0473 µM
- TGI [20]: 2.03 µM
- GI50 [21]: 0.0777 µM
- TGI [21]: 1.04 µM
- GI50 [22]: 0.0312 µM
- TGI [22]: 0.741 µM
- GI50 [23]: 1.82 µM
- TGI [23]: 3.4 µM
- GI50 [24]: 1.81 µM
- TGI [24]: 3.44 µM
- GI50 [25]: 1.93 µM
- TGI [25]: 3.71 µM
- GI50 [26]: < 0.01 µM
- TGI [26]: 0.0119 µM
- GI50 [27]: 0.0118 µM
- TGI [27]: 0.0659 µM
- GI50 [28]: 2.04 µM
- TGI [28]: 5.35 µM
- GI50 [29]: 2.3 µM
- TGI [29]: 5.99 µM
- GI50 [30]: 0.0312 µM
- TGI [30]: 1.13 µM
- GI50 [31]: 1.58 µM
- TGI [31]: 3.02 µM
- GI50 [32]: 14 µM
- TGI [32]: 27.2 µM
- GI50 [33]: 1.66 µM
- TGI [33]: 3.22 µM
- GI50 [34]: 1.91 µM
- TGI [34]: 5.55 µM
- GI50 [35]: 2.28 µM
- TGI [35]: 5.34 µM
- GI50 [36]: 2.4 µM
- TGI [36]: 5.61 µM
- GI50 [37]: 1.84 µM
- TGI [37]: 3.33 µM
- GI50 [38]: 1.66 µM
- TGI [38]: 3.04 µM
- GI50 [39]: 1.42 µM
- TGI [39]: 2.84 µM
- GI50 [40]: 2.12 µM
- TGI [40]: 4.56 µM
- GI50 [41]: 1.74 µM
- TGI [41]: 3.29 µM
- GI50 [42]: 1.66 µM
- TGI [42]: 3.12 µM
- GI50 [43]: 1.88 µM
- TGI [43]: 3.32 µM
- GI50 [44]: 1.71 µM
- TGI [44]: 3.15 µM
- GI50 [45]: 0.668 µM
- TGI [45]: 2.07 µM
- GI50 [46]: 1.8 µM
- TGI [46]: 3.67 µM
- GI50 [47]: 2.67 µM
- TGI [47]: 7.98 µM
- GI50 [48]: 2.35 µM
- TGI [48]: 5.15 µM
- GI50 [50]: < 0.01 µM
- GI50 [51]: 3.32 µM
- TGI [51]: 11.1 µM
- GI50 [52]: 1.63 µM
- TGI [52]: 4.1 µM
- GI50 [53]: 2.5 µM
- TGI [53]: 7.33 µM
- GI50 [54]: 2.08 µM
- TGI [54]: 4.45 µM
- GI50 [55]: 0.0946 µM
- TGI [55]: 0.49 µM
- GI50 [56]: < 0.01 µM
- TGI [56]: 1.07 µM
- GI50 [60]: 0.0785 µM
- TGI [60]: 0.335 µM
